Measured values published in patent publication US20040171073A1, “Compounds for modulation of cholesterol transport” (Massachusetts Institute of Technology, priority 2002, published 2004).

Target: T1, murine SR-BI (Mus musculus, UniProt Q61009)
T1 construct: expressed in transfected cells; host or cells: ldlA-7 (LDL receptor deficient Chinese hamster ovary cells)
T1 sequence (Q61009 1-509): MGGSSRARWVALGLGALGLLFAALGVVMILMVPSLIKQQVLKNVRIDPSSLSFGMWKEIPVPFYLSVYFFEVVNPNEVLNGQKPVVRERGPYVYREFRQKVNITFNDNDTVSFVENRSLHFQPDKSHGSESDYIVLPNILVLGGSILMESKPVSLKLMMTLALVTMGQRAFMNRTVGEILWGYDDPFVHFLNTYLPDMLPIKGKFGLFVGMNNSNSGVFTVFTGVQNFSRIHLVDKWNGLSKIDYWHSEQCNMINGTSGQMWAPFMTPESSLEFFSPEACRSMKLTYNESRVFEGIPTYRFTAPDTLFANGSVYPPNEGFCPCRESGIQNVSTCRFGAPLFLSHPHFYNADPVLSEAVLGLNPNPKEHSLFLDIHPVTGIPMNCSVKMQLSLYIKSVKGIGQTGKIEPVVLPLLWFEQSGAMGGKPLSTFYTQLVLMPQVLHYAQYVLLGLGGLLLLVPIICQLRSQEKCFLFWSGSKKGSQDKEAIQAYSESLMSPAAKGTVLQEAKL
Test: Uptake of DiI from DiI-HDL by ldlA[mSR-BI] cells (high throughput screen and concentration dependence)
Format: cell-based

[1] = DiI uptake from DiI-HDL, compounds at nominal 10 micromolar, ldlA[mSR-BI] cells

Row | Structure (SMILES) | ENDOHDL Test 1 | ENDOHDL Test 2 | ENDOHDL Test 1 [1] | ENDOHDL Test 2 [1]
1 | C/C(=C\C(=O)NCCc1c[nH]c2ccccc12)C(=O)O [MIT 9952-76] | 1.25 | 1.26 |  | 
2 | O=C(Nc1ccc2c(c1)OCO2)c1ccc2ccccc2c1 [MIT 9952-280] |  |  | 0.75 | 0.67
3 | CC(C)c1ccc(NC(=O)/C=C/c2cccc([N+](=O)[O-])c2)cc1 [MIT 9952-274] | 0.65 | 0.6 |  | 
4 | CC[n+]1c(/C=C/SC)ccc2ccccc21 [MIT 9952-260] | 0.56 | 0.58 |  | 
5 | COc1ccc2c(c1)c(C(C)=O)c(C)n2-c1ccccc1 [MIT 9952-335] |  |  | 0.57 | 0.49
6 | O=C(CSC1=NCCN1)Nc1ccccc1 [MIT 9952-314] |  |  | 0.55 | 0.54
7 | CCc1nnc(N2CCN(c3ncnc4c3cnn4-c3ccccc3)CC2)s1 [MIT 9952-248] | 0.68 | 0.66 |  | 
8 | COc1ccc(COCC(Cl)CN2CCCCC2)cc1OC.Cl (centres unmarked) [MIT 9952-40] | 1.28 | 1.23 |  | 
9 | CO/C(=N\C(NC(=S)Nc1ccccc1)C(Cl)(Cl)Cl)c1ccc(C)cc1 (centres unmarked) [MIT 9952-203] | 0.73 | 0.7 |  | 
10 | CCOC(=O)c1c(NC(=O)c2ccccc2)sc(NC(=O)c2ccccc2)c1C(=O)OCC [MIT 9952-215] | 0.57 | 0.53 |  | 
11 | Nc1ccc(C(=O)Nc2ccc(-c3nc4ccc(NC(=O)c5ccc(N)cc5)c(Cl)c4[nH]3)cc2Cl)cc1 [MIT 9952-208] | 0.57 | 0.55 |  | 
12 | Brc1ccc(-c2cc(-c3ccccc3)nc(N3CCOCC3)n2)cc1 [MIT 9952-261] | 0.62 | 0.66 |  | 
13 | Cc1cccc(/C=N/Nc2nc(C)nc(C)n2)c1 [MIT 9952-270] | 0.66 | 0.66 |  | 
14 | CCOC(=O)C1=C(C)NC(=S)N(C=O)C1c1ccccc1 (centres unmarked) [MIT 9952-297] |  |  | 0.56 | 0.46
15 | COc1c(Cl)cc(Cl)cc1C(=O)Nc1ccc(Br)cc1 [MIT 9952-155] | 0.69 | 0.47 |  | 
16 | C#CCOC(=O)CCCC(=O)Nc1ccccc1[N+](=O)[O-] [MIT 9952-191] | 1.27 | 1.98 |  | 
17 | O=C(Oc1ccc2c(=O)c(Oc3ccccc3)coc2c1)C1CCCN1C(=O)OCc1ccccc1 (centres unmarked) [MIT 9952-145] | 1.28 | 1.34 |  | 
18 | O=C(NC(NC(=S)Nc1cccc([N+](=O)[O-])c1)C(Cl)(Cl)Cl)C(c1ccccc1)c1ccccc1 (centres unmarked) [MIT 9952-327] |  |  | 0.4 | 0.45
19 | COc1cc2c(-c3ccccc3)c(C)oc2cc1/C=N/NC(N)=S [MIT 9952-206] | 0.56 | 0.52 |  | 
20 | C/C(CCS(=O)(=O)c1ccc(C)cc1)=N\NC(N)=S [MIT 9952-333] |  |  | 0.56 | 0.59
21 | O=C(COc1ccc(Cl)cc1Cl)Nc1cccc(C(=O)O)c1 [MIT 9952-127] | 0.62 | 0.6 |  | 
22 | O=C(Nc1ccc(Cl)c(Cl)c1)c1ccccc1Br [MIT 9952-268] | 0.59 | 0.65 |  | 
23 | Cn1cc(C=O)c2cc(Br)ccc21 [MIT 9952-193] | 0.66 | 0.69 |  | 
24 | Br.CCOC(=O)c1c(CSC(=N)N)n(C)c2cc(Br)c(OC(C)=O)cc12 [MIT 9952-146] | 0.62 | 0.71 |  | 
25 | O=[N+]([O-])c1ccc(N/N=C(/CS(=O)(=O)c2ccccc2)c2ccccc2)c([N+](=O)[O-])c1 [MIT 9952-200] | 0.73 | 0.8 |  | 
26 | CC(C)(C)c1ccc(C(=O)Nc2ccccc2C(=O)O)cc1 [MIT 9952-48] | 0.68 | 0.49 |  | 

Row | Structure (SMILES) | ENDOHDL Test 1 | ENDOHDL Test 2 | ENDOHDL Test 1 [1] | ENDOHDL Test 2 [1]
27 | O=C(Nc1ccc(-c2nc3ccccc3s2)cc1)c1ccc(Cl)cc1Cl [MIT 9952-284] |  |  | 0.65 | 0.54
28 | C/C(=N\NC(=O)c1ccccc1)c1ccccc1C(=O)O [MIT 9952-242] | 1.26 | 1.26 |  | 
29 | Cc1nc(Cl)c(C(c2cc([N+](=O)[O-])ccc2Cl)c2c(Cl)nc(C)nc2Cl)c(Cl)n1 [MIT 9952-22] | 1.27 | 1.4 |  | 
30 | O=C(Nc1ccc(Oc2ccc(Cl)c3cccnc23)c(Cl)c1)c1ccc([N+](=O)[O-])cc1 [MIT 9952-172] | 0.55 | 0.56 |  | 
31 | O=C(NC(NC(=S)Nc1ccc2ccccc2c1)C(Cl)(Cl)Cl)c1cccc([N+](=O)[O-])c1 (centres unmarked) [MIT 9952-336] |  |  | 0.54 | 0.58
32 | O=C(NC(NC(=S)Nc1cc(C(F)(F)F)ccc1Cl)C(Cl)(Cl)Cl)c1ccco1 (centres unmarked) [MIT 9952-90] | 0.62 | 0.61 |  | 
33 | COc1ccc(N2C(=O)CC(N3CCCCC3)C2=O)cc1 (centres unmarked) [MIT 9952-16] | 1.25 | 1.26 |  | 
34 | CN(C)c1ccc(C(Cl)(c2ccc(N(C)C)cc2)C2CN3CCC2CC3)cc1.Cl (centres unmarked) [MIT 9952-137] | 1.32 | 1.25 |  | 
35 | C/C(CS(=O)(=O)c1ccc(C)cc1)=N/NC(N)=S [MIT 9952-181] | 0.6 | 0.54 |  | 
36 | CCN(CC)S(=O)(=O)c1cc(C(=O)Nc2ccc(Br)cc2)ccc1Br [MIT 9952-192] | 0.57 | 0.52 |  | 
37 | CCOC(=O)c1c(/N=C/c2ccccc2[N+](=O)[O-])sc2c1CCCC2 [MIT 9952-187] | 0.33 | 0.46 |  | 
38 | Cc1cc(C(=O)N/N=C\c2c(O)ccc3ccccc23)[nH]n1 [MIT 9952-150] | 0.34 | 0.52 |  | 
39 | Cc1ccc2[nH]c3c(c2c1)CCCC3NCC12CC3CC(CC(C3)C1)C2 (centres unmarked) [MIT 9952-265] | 0.26 | 0.89 |  | 
40 | Br.Oc1c(Br)cccc1CN(Cc1cc(Br)cc(Br)c1O)C1CCCCC1 [MIT 9952-316] |  |  | 0.71 | 0.72
41 | CCOC(=O)c1c(C)n(-c2ccc(C)cc2)c2ccc(O)cc12 [MIT 9952-73] | 0.61 | 0.59 |  | 
42 | Cc1ccsc1/C=N/NC(=O)c1cccc([N+](=O)[O-])c1 [MIT 9952-323] |  |  | 0.46 | 0.63
43 | O=C(Nc1cccc(NC(=O)c2ccccc2Cl)c1)c1cccc([N+](=O)[O-])c1 [MIT 9952-213] | 0.66 | 0.57 |  | 
44 | COc1cccc(C(=O)N/N=C/c2ccc(Cl)cc2Cl)c1 [MIT 9952-285] |  |  | 0.57 | 0.53
45 | COc1ccccc1NC(=O)c1ccc(OC)c(OC)c1 [MIT 9952-269] | 0.74 | 0.66 |  | 
46 | COc1ccccc1C(=O)NC(Nc1cccc2ccccc12)C(Cl)(Cl)Cl (centres unmarked) [MIT 9952-134] | 0.58 | 0.59 |  | 
47 | CC(=O)Oc1ccc2ccccc2c1C=O [MIT 9952-13] | 0.55 | 0.67 |  | 
48 | COc1ccc(C(=O)NC(Nc2cccc3ccccc23)C(Cl)(Cl)Cl)cc1 (centres unmarked) [MIT 9952-131] | 0.56 | 0.52 |  | 
49 | O=C(O)c1cc(C(=O)O)nc(C(=O)O)c1 [MIT 9952-60] | 1.13 | 1.17 |  | 
50 | CCCCCOc1ccc(-c2ccc(C(=O)NC(NCc3ccccc3)C(Cl)(Cl)Cl)cc2)cc1 (centres unmarked) [MIT 9952-247] | 0.63 | 0.64 |  | 
51 | Cc1ccc(NC(=S)NC(NC(=O)c2ccccc2Cl)C(Cl)(Cl)Cl)cc1 (centres unmarked) [MIT 9952-332] |  |  | 0.69 | 0.67
52 | CCS(=O)(=O)C(=C(Nc1ccc(OC)cc1)Nc1ccc(OC)cc1)S(=O)(=O)CC [MIT 9952-220] | 1.13 | 1.25 |  | 
